Experimental data from patent EP4755384A1, “PHARMACEUTICAL COMPOSITION CONTAINING ANDROGEN RECEPTOR INHIBITOR/ANTAGONIST, METHOD AND USE” (Suzhou Kintor Pharmaceuticals, Inc., priority 2023, dated 2025).

Assays:
[1] = system: mice; assay: In-vivo efficacy experiment 2: hair scoring in depilated mice given DHT; design: key: 0 = no skin darkening, 5 = complete hair growth; settings: minoxidil 5% (50 mg/mL) 150 µL topical QD, DHT 30 mg/kg subcutaneous QD
Protocol: 120 mice were deeply anesthetized. First, the hair on the back of the mice was shaved off with an animal hair clipper. Then, depilatory cream (Veet, https://item.jd.com/6291245.html) was evenly applied to the skin surface of the mice. After leaving it for 7-10 minutes, the remaining hair was gently scraped off against the hair growth direction with a depilatory spatula. Finally, the residual depilatory cream on the skin surface was thoroughly washed off with a wet wipe to avoid skin burns in the mice.
DHT and test substances (compound of formula I and minoxidil) were administered starting on the day following depilation, which was recorded as Day 1 (the day of depilation was recorded as Day 0). 86 mice in good condition were randomly selected and assigned to each group.
The main observation indicators of this experiment are shown in FIG. 12 (literature on hair scoring: Biomolecules & Therapeutics, 17(3), 241-248 (2009)), which is described as follows: (Score 0: No darkening of skin colour observed in any areas; Score 1: Darkening of skin area from greyish to black; Score 2: Visible short hairs; Score 3: Sparse hairs; Score 4: Dense hairs; Score 5: Complete hair growth). After depilation, the mice were photographed and scored three times a week until the end of the experiment. Table 4 Experimental grouping
According to the grouping in Table 4, and the corresponding administration dose, test substance concentration and administration volume, […] above experimental design and methods. For groups G6, G7 and G8, which received a combined administration of the compound of formula I and minoxidil, one drug was administered first followed by the other, with the administration interval between the two drugs not exceeding 1 minute.
(§1) Starting from the first day of administration, body weight was weighed and recorded twice a week, and hair regrowth (anagen) scoring and photography were performed […], until the end of the experiment. Scoring was conducted according to the criteria described in the experimental design.

[2] = system: mice; assay: In-vivo efficacy experiment 1: hair scoring in depilated mice given DHT; design: key: 0 = no skin darkening, 5 = complete hair growth; settings: DHT 30 mg/kg subcutaneous QD
Protocol: 100 mice were deeply anesthetized. First, the hair on the back of the mice was shaved off with an animal hair clipper. Then, depilatory cream (Veet, https://item.jd.com/6291245.html) was evenly applied to the skin surface of the mice. After leaving it for 7-10 minutes, the remaining hair was gently scraped off against the hair growth direction with a depilatory spatula. Finally, the residual depilatory cream on the skin surface was thoroughly washed off with a wet wipe to avoid skin burns in the mice.
The main observation indicators of this experiment are shown in FIG. 12 (literature on hair scoring: Biomolecules & Therapeutics, 17(3), 241-248 (2009)), which is described as follows: (Score 0: No darkening of skin colour observed in any areas; Score 1: Darkening of skin area from greyish to black; Score 2: Visible short hairs; Score 3: Sparse hairs; Score 4: Dense hairs; Score 5: Complete hair growth). After depilation, the mice were photographed and scored three times a week until the end of the experiment.
100 mice were deeply anesthetized. First, the hair on the back of the mice was shaved off with an animal hair clipper. Then, depilatory cream was evenly applied to the skin surface of the mice. After leaving it for 7-10 minutes, the remaining hair was gently scraped off against the hair growth direction with a depilatory spatula. Finally, the residual depilatory cream on the skin surface was thoroughly washed off with a wet wipe to avoid skin burns in the mice.
DHT and test substances (compound of formula I and minoxidil) were administered starting on the day following depilation, which was recorded as Day 1 (the day of depilation was recorded as Day 0). 64 mice in good condition were randomly selected and assigned to each group. Table 1 Experimental grouping
According to the grouping in Table 1, and the corresponding administration dose, test substance concentration and administration volume, […] above experimental design and methods. For groups G7 and G8, which received a combined administration of the compound of formula I and minoxidil, one drug was administered first followed by the other, with the administration interval between the two drugs not exceeding 1 minute.
as §1

For `Nc1cc(N2CCCCC2)nc(N)[n+]1[O-]` [minoxidil, Minoxidil], the “Hair scoring in mice” value ([1]; Day 8) was 0.00, the “Hair scoring in mice” value ([1]; Day 11) was 0.25 and the “Hair scoring in mice” value ([1]; Day 15) was 1.25. For the same compound, the “Hair scoring in mice” value ([1]; Day 17) was 1.88, the “Hair scoring in mice” value ([1]; Day 19) was 2.63 and the “Hair scoring in mice” value ([1]; Day 21) was 2.75. For the same compound, the “Hair scoring in mice, Score” value ([2]; Day 7, minoxidil 2% (20 mg/mL) 150 µL topical QD) was 0.00, the “Hair scoring in mice, Score” value ([2]; Day 7, minoxidil 5% (50 mg/mL) 150 µL topical QD) was 0.13 and the “Hair scoring in mice, Score” value ([2]; Day 9, minoxidil 2% (20 mg/mL) 150 µL topical QD) was 0.29. The “Hair scoring in mice, Score” value ([2]; Day 9, minoxidil 5% (50 mg/mL) 150 µL topical QD) was 0.25, the “Hair scoring in mice, Score” value ([2]; Day 11, minoxidil 2% (20 mg/mL) 150 µL topical QD) was 0.57 and the “Hair scoring in mice, Score” value ([2]; Day 11, minoxidil 5% (50 mg/mL) 150 µL topical QD) was 0.38. The “Hair scoring in mice, Score” value ([2]; Day 14, minoxidil 2% (20 mg/mL) 150 µL topical QD) was 0.86, the “Hair scoring in mice, Score” value ([2]; Day 14, minoxidil 5% (50 mg/mL) 150 µL topical QD) was 1.00 and the “Hair scoring in mice, Score” value ([2]; Day 16, minoxidil 2% (20 mg/mL) 150 µL topical QD) was 1.14. The “Hair scoring in mice, Score” value ([2]; Day 16, minoxidil 5% (50 mg/mL) 150 µL topical QD) was 1.75, the “Hair scoring in mice, Score” value ([2]; Day 18, minoxidil 2% (20 mg/mL) 150 µL topical QD) was 1.86 and the “Hair scoring in mice, Score” value ([2]; Day 18, minoxidil 5% (50 mg/mL) 150 µL topical QD) was 2.63. The “Hair scoring in mice, Score” value ([2]; Day 21, minoxidil 2% (20 mg/mL) 150 µL topical QD) was 2.29, the “Hair scoring in mice, Score” value ([2]; Day 21, minoxidil 5% (50 mg/mL) 150 µL topical QD) was 3.13 and the “Hair scoring in mice, Score” value ([2]; Day 23, minoxidil 2% (20 mg/mL) 150 µL topical QD) was 2.71. For the same compound, the “Hair scoring in mice, Score” value ([2]; Day 23, minoxidil 5% (50 mg/mL) 150 µL topical QD) was 3.50.
